{"source": "patent US10905680B2", "about": "“Methods of treatment for cholestatic and fibrotic diseases” (Genfit, priority 2016, dated 2021)", "key": {"[1]": {"test_system": "human primary hepatic stellate cells (hHSC)", "assay": "TGFβ1-induced expression of α-SMA protein in human HSC (ELISA)", "type": "cell-based", "conditions": "Homo sapiens, 1 h preincubation, TGFβ1 1 ng/ml, 48 hours, read-out: IC50 (level of α-SMA in TGFβ-induced HSCs)", "protocol": "Serum-deprived HSC were preincubated for 1 hour with NTZ (A) or TZ (B) before the activation with the profibrogenic cytokine TGFβ1 (1 ng/ml). After 48 hours of incubation, the expression of α-SMA was measured by ELISA. The obtained values were transformed into percentage inhibition over TGFβ1 control. Data are presented as mean (triplicates)±standard deviation (SD). Statistical analyses were performed by one-way ANOVA followed by Bonferroni post-hoc tests, using Sigma Plot 11.0 software. [*: p<0.05; **: p<0.01; ***: p<0.001 (comparison versus TGFβ1 1 ng/mL group)]. The curve fitting and the calculation of half maximal inhibitory concentration (IC50) were performed with XLFit software 5.3.1.3. The human primary hepatic stellate cells (hHSC) (Innoprot) were cultured in STeCM medium (ScienCell cat #5301) that was supplemented with 2% fetal bovine serum (FBS, ScienCell cat #0010), 1% penicillin/streptomycin (ScienCell cat #0503) and stellate cell growth supplement (SteCGS; ScienCell cat #5352). Cell culture flasks were coated with Poly-L Lysine (Sigma cat # P4707) for a better adherence. The human primary hepatic stellate cells (hHSC) (Innoprot) were cultured under standard conditions, as described above. The cells were subsequently plated at a density of 7×10^4 cells/well into 24-well plates for gene expression studies, and at a density of 2×10^4 cells/well into 96-well plates for the measure of α-SMA by ELISA. The next day, cell culture medium was removed, and cells were washed with PBS (Invitrogen cat #14190). hHSC were deprived for 24 hours in serum-free and SteCGS-free medium. For the treatments with NTZ or TZ, the serum-deprived hHSC were preincubated for 1 hour with the compounds followed by the addition of the profibrogenic stimuli TGFβ1 (PeproTech cat #100-21, 1 ng/mL) in serum-free and SteCGS-free medium for an additional 24 or 48 hour period (the timepoint is indicated in the figure legends). […] The level of α-SMA was measured using a Sandwich ELISA. […]"}, "HSC": {"test_system": "HSC", "assay": "Toxicity assays in HSC", "type": "cell-based, human", "conditions": "data not shown"}}}
{"smiles": "CC(=O)Oc1ccccc1C(=O)Nc1ncc([N+](=O)[O-])s1", "note": "[NTZ, [2-[(5-nitro-1,3-thiazol-2-yl)carbamoyl]phenyl]ethanoate, reference compound]", "values": [{"measurement": "IC50", "setting": "[1]", "result": "100 to 3000", "unit": "nM"}, {"measurement": "toxicity or apoptosis of HSC", "setting": "HSC", "result": "not due to toxicity or apoptosis"}]}
